PubChem BioAssay AID1845194 (Molecular Pharmacology Branch, DTP, NCI, 2023)
Where “and” joins values, the source holds several entries; their conditions need not be identical. Equal entries are not always repeated.

System: 287954-098-R-J1 tumor spheroid viability
Experiment: Anticancer human tumor 287954-098-R-J1 patient-derived Ewing sarcoma cell line growth inhibition
Settings: spheroids with HUVEC and MSC; for viability, T/C: stronger effect = lower value
Method in brief: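 Complex tumor spheroids combined malignant cells with endothelial cells and mesenchymal stem cells. DNA-damaging drugs and DNA repair inhibitors were tested alone and in combination, at half-log dilutions down from clinical Cmax (top 10 microM if Cmax unknown), 0.25% DMSO final.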

[1] = curve of first compound, second compound 0.003 µM
[2] = curve of first compound, second compound 0.00949 µM
[3] = curve of first compound, second compound 0.03 µM
[4] = curve of first compound, second compound 0.0949 µM
[5] = curve of first compound, second compound 0.3 µM
[6] = second compound 0.003 µM, first compound 0.0316 µM
[7] = second compound 0.003 µM, first compound 0.1 µM
[8] = second compound 0.003 µM, first compound 0.316 µM
[9] = second compound 0.003 µM, first compound 1 µM
[10] = second compound 0.003 µM, first compound 3.16 µM
[11] = second compound 0.003 µM, first compound 10 µM
[12] = second compound 0.00949 µM, first compound 0.0316 µM
[13] = second compound 0.00949 µM, first compound 0.1 µM
[14] = second compound 0.00949 µM, first compound 0.316 µM
[15] = second compound 0.00949 µM, first compound 1 µM
[16] = second compound 0.00949 µM, first compound 3.16 µM
[17] = second compound 0.00949 µM, first compound 10 µM
[18] = second compound 0.03 µM, first compound 0.0316 µM
[19] = second compound 0.03 µM, first compound 0.1 µM
[20] = second compound 0.03 µM, first compound 0.316 µM
[21] = second compound 0.03 µM, first compound 1 µM
[22] = second compound 0.03 µM, first compound 3.16 µM
[23] = second compound 0.03 µM, first compound 10 µM
[24] = second compound 0.0949 µM, first compound 0.0316 µM
[25] = second compound 0.0949 µM, first compound 0.1 µM
[26] = second compound 0.0949 µM, first compound 0.316 µM
[27] = second compound 0.0949 µM, first compound 1 µM
[28] = second compound 0.0949 µM, first compound 3.16 µM
[29] = second compound 0.0949 µM, first compound 10 µM
[30] = second compound 0.3 µM, first compound 0.0316 µM
[31] = second compound 0.3 µM, first compound 0.1 µM
[32] = second compound 0.3 µM, first compound 0.316 µM
[33] = second compound 0.3 µM, first compound 1 µM
[34] = second compound 0.3 µM, first compound 3.16 µM
[35] = second compound 0.3 µM, first compound 10 µM
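Note: spheroids exposed to compound for 7 days before viability readout.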
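Throughout, for viability, T/C: luminescent signal taken as surrogate of viable cell content; 100% = DMSO vehicle control viability and lower means growth inhibition.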

Structure (SMILES): O=C(c1cc(Cc2n[nH]c(=O)c3ccccc23)ccc1F)N1CCN(C(=O)C2CC2)CC1 + CC[C@@]1(O)C(=O)OCc2c1cc1n(c2=O)Cc2cc3c(CN(C)C)c(O)ccc3nc2-1
- IC50 [1]: 5240 nM
- IC50 [2]: 3840 nM
- IC50 [3]: < 94.9 nM
- IC50 [4]: < 94.9 nM
- IC50 [5]: < 94.9 nM
- viability, T/C (second compound 0.003 µM, first compound 0.0949 µM): 93.7%
- viability, T/C (second compound 0.003 µM, first compound 0.3 µM): 96.7%
- viability, T/C (second compound 0.003 µM, first compound 0.949 µM): 96.2%
- viability, T/C (second compound 0.003 µM, first compound 3 µM): 93.9%
- viability, T/C (second compound 0.003 µM, first compound 9.49 µM): 3.33%
- viability, T/C (second compound 0.003 µM, first compound 30 µM): 1.93%
- viability, T/C (second compound 0.00949 µM, first compound 0.0949 µM): 92.9%
- viability, T/C (second compound 0.00949 µM, first compound 0.3 µM): 95.3%
- viability, T/C (second compound 0.00949 µM, first compound 0.949 µM): 82.9%
- viability, T/C (second compound 0.00949 µM, first compound 3 µM): 63.2%
- viability, T/C (second compound 0.00949 µM, first compound 9.49 µM): 1.84%
- viability, T/C (second compound 0.00949 µM, first compound 30 µM): 1.78%
- viability, T/C (second compound 0.03 µM, first compound 0.0949 µM): 2.21%
- viability, T/C (second compound 0.03 µM, first compound 0.3 µM): 2.14%
- viability, T/C (second compound 0.03 µM, first compound 0.949 µM): 2.31%
- viability, T/C (second compound 0.03 µM, first compound 3 µM): 2.28%
- viability, T/C (second compound 0.03 µM, first compound 9.49 µM): 1.82%
- viability, T/C (second compound 0.03 µM, first compound 30 µM): 1.46%
- viability, T/C (second compound 0.0949 µM, first compound 0.0949 µM): 2.17%
- viability, T/C (second compound 0.0949 µM, first compound 0.3 µM): 1.78%
- viability, T/C (second compound 0.0949 µM, first compound 0.949 µM): 1.87%
- viability, T/C (second compound 0.0949 µM, first compound 3 µM): 1.93%
- viability, T/C (second compound 0.0949 µM, first compound 9.49 µM): 1.76%
- viability, T/C (second compound 0.0949 µM, first compound 30 µM): 1.56%
- viability, T/C (second compound 0.3 µM, first compound 0.0949 µM): 1.94%
- viability, T/C (second compound 0.3 µM, first compound 0.3 µM): 1.89%
- viability, T/C (second compound 0.3 µM, first compound 0.949 µM): 1.84%
- viability, T/C (second compound 0.3 µM, first compound 3 µM): 1.71%
- viability, T/C (second compound 0.3 µM, first compound 9.49 µM): 1.55%
- viability, T/C (second compound 0.3 µM, first compound 30 µM): 1.28%

Structure (SMILES): O=C(c1cc(Cc2n[nH]c(=O)c3ccccc23)ccc1F)N1CCN(C(=O)C2CC2)CC1
- viability, T/C (compound 0.0949 µM): 103%
- viability, T/C (compound 0.3 µM): 91.4% and 92.4% and 106%
- viability, T/C (compound 0.949 µM): 91.6% and 89.5% and 109%
- viability, T/C (compound 3 µM): 90.2% and 93.9% and 108%
- viability, T/C (compound 9.49 µM): 87.1% and 76.8% and 96.1%
- IC50 (curve of compound): 21400 nM and 14900 nM and 20200 nM

Structure (SMILES): CC1COCCN1c1cc(-c2ccnn2C)c2ccnc(-c3ccn[nH]3)c2n1 (stereo unspecified) + CC[C@@]1(O)C(=O)OCc2c1cc1n(c2=O)Cc2cc3c(CN(C)C)c(O)ccc3nc2-1
- IC50 [1]: 45.5 nM
- IC50 [2]: < 31.6 nM
- IC50 [3]: < 31.6 nM
- IC50 [4]: < 31.6 nM
- IC50 [5]: < 31.6 nM
- viability, T/C [6]: 66.4%
- viability, T/C [7]: 14.3%
- viability, T/C [8]: 7.1%
- viability, T/C [9]: 2.65%
- viability, T/C [10]: 1.92%
- viability, T/C [11]: 2.07%
- viability, T/C [12]: 3.62%
- viability, T/C [13]: 1.68%
- viability, T/C [14]: 2.2%
- viability, T/C [15]: 1.74%
- viability, T/C [16]: 1.4%
- viability, T/C [17]: 2%
- viability, T/C [18]: 1.73%
- viability, T/C [19]: 1.36%
- viability, T/C [20]: 1.38%
- viability, T/C [21]: 0.71%
- viability, T/C [22]: 1.17%
- viability, T/C [23]: 1.55%
- viability, T/C [24]: 1.53%
- viability, T/C [25]: 1.31%
- viability, T/C [26]: 1.28%
- viability, T/C [27]: 0.9%
- viability, T/C [28]: 0.77%
- viability, T/C [29]: 1.08%
- viability, T/C [30]: 1.62%
- viability, T/C [31]: 1.43%
- viability, T/C [32]: 1.23%
- viability, T/C [33]: 0.85%
- viability, T/C [34]: 0.69%
- viability, T/C [35]: 0.67%

Structure (SMILES): COc1ccc([C@@H](O)c2cc(-c3ncnc4cc(N5CCOCC5)ccc34)c(F)cc2Cl)nn1 + CC[C@@]1(O)C(=O)OCc2c1cc1n(c2=O)Cc2cc3c(CN(C)C)c(O)ccc3nc2-1
- IC50 [1]: > 10000 nM
- IC50 [2]: > 10000 nM
- IC50 [3]: < 31.6 nM
- IC50 [4]: < 31.6 nM
- IC50 [5]: < 31.6 nM
- viability, T/C [6]: 91.5%
- viability, T/C [7]: 97.4%
- viability, T/C [8]: 95.8%
- viability, T/C [9]: 105%
- viability, T/C [10]: 96.5%
- viability, T/C [11]: 83.9%
- viability, T/C [12]: 94.3%
- viability, T/C [13]: 94.1%
- viability, T/C [14]: 100%
- viability, T/C [15]: 92.1%
- viability, T/C [16]: 93.2%
- viability, T/C [17]: 54.9%
- viability, T/C [18]: 21.7%
- viability, T/C [19]: 24.2%
- viability, T/C [20]: 11.3%
- viability, T/C [21]: 5.39%
- viability, T/C [22]: 0.97%
- viability, T/C [23]: 5.74%
- viability, T/C [24]: 1.23%
- viability, T/C [25]: 1.03%
- viability, T/C [26]: 1.21%
- viability, T/C [27]: 0.99%
- viability, T/C [28]: 0.52%
- viability, T/C [29]: 0.59%
- viability, T/C [30]: 1.41%
- viability, T/C [31]: 1.01%
- viability, T/C [32]: 1.15%
- viability, T/C [33]: 0.88%
- viability, T/C [34]: 0.44%
- viability, T/C [35]: 0.41%
